Patent EP0816848A1, “Method for comparative screening of substances with pharmacological activity” (BOEHRINGER INGELHEIM INTERNATIONAL GmbH, priority 1996, dated 1998)
One block for each compound: values may come before it.

Experiments:
EGF-Rezeptor = EGF-Rezeptor (Homo sapiens, UniProt P00533); assay: c-fos promoter luciferase reporter assay in KB-B4 cells, EGF-induced; format: cell-based; conditions: 1 ng/ml EGF, 6 h (Fig. 6)
H-ras^Val12 [1] = assay: Detection of inhibition of Ras farnesylation (immunoprecipitation, SDS gel, Western blot) in FHRV12cc21 cells; format: cell-based, mouse; conditions: 5 µM, 48 h, 1% IL-3
Experimental: Nachweis der H-ras^Val12 Expression FHRV12cc21 und untransfizierte FDC-P1 Zellen wurden in IMDM Medium mit 10% FCS und 1% IL-3 gezüchtet. Zum Nachweis der Hemmung der posttranslationalen Modifikation von H-ras^Val12 durch Farnesylierung wurden die Zellen für 48 Stunden mit 5 µM des Protein-Farnesyltransferase-Inhibitors L-739.749 (Kohl et al., 1994) inkubiert. Die Zellen wurden mit PBS gewaschen und in PBSTDS (1% Triton X-100, 0.5% Natriumdesoxycholat, 0.1% Natriumdodecylsulfat in PBS) 5 min bei 4°C lysiert. Die Zellysate wurden durch Zentrifugation (20 min 14.000x g, 4°C) geklärt. Ras Proteine wurden durch Zusatz von 1 µg monoklonalen Ratten Antikörper Y13-238 (Oncogene Science) und Protein-G Plus / Protein-A Agarose (Oncogene Science) über Nacht bei 4°C immunpräzipitiert. Die Präzipitate wurden zweimal mit PBSTDS Puffer gewaschen und anschließend in SDS-Probenpuffer mit 3% β-Mercaptoethanol ausgenommen. Die Proteine wurden in einem 20%igen SDS-Polyacrylamidgel aufgetrennt, auf eine Immobilon-Membran (Millipore) transferiert und nach Absättigen der Membran mit 10% FCS, 1% Rinderserumalbumin, 1% Tween-20 in PBS, durch aufeinanderfolgende Inkubation mit einem Ras^Val12 spezifischen monoklonalen Antikörper (pan-Ras^Val12, Oncogene Science) und einem sekundären anti-Maus-IgG - Alkalische Phosphatase-Konjugat durch Färbereaktion mit NBT und BCIP (Promega) nachgewiesen. […]

H-ras^Val12 [2] = assay: Inhibition of IL-3 independent growth of H-ras^Val12 transfected FDC-P1 cells (FHRV12cc21), viability by MTS assay; format: cell-based, mouse; conditions: IL-3 free medium, relative absorption (Fig. 1)
Experimental: (§1) FDC-P1 Zellen (Dexter et al., 1980) wurden in IMDM Medium (BioWhittaker), versetzt mit 10% hitzeinaktiviertem fötalem Kälberserum (FCS), 2 mM Glutamin, 50 µM β-Mercaptoäthanol und 1% IL-3 angesetzt und bei 37°C in 5% CO2 inkubiert. 10^7 Zellen pro Transfektion wurden 5 min bei 1200 UpM bei Raumtemperatur abzentrifugiert (Heraeus Minifuge), einmal mit serumfreiem RPMI-1640 Medium gewaschen, und in 1 ml serumfreiem Medium suspendiert. 800 µl dieser Zellsuspension wurden in einer Elektroporationsküvette mit 20 µg Plasmid pGDV12ras gemischt und mit einem einzelnen Stromstoß von 280 V, 980 µF und 1000 ms elektroporiert (Progenetor II, Hoefer Instruments). Die Zellen wurden in 10 ml Kulturmedium mit 1% IL-3 verdünnt und bei 37°C, 5% CO2 inkubiert. Zwei Tage nach der Transfektion wurden die Zellen mit frischem Medium 3-fach verdünnt und 250 µg/ml G-418 zur Selektion auf Neomycin-resistenz zugesetzt. An den darauffolgenden Tagen wurde die G-418 Konzentration auf 500, 750 und 1000 µg/ml erhöht. Tote Zellen wurden mittels Zentrifugation durch einen Ficoll-Gradienten entfernt. Dazu wurden die Zellen zuerst mittels Zentrifugation (5 min, 1200 UpM) in einem geringen Volumen aufkonzentriert und in einem Zentrifugenröhrchen über Ficoll-Paque (Pharmacia) geschichtet. […]

H-ras^Val12 [3] = assay: Inhibition of IL-3 independent growth of H-ras^Val12 transfected FDC-P1 cells (FHRV12cc21), DNA synthesis by [3H]thymidine incorporation; format: cell-based, mouse; conditions: IL-3 free medium (Fig. 2)
Experimental: as §1

Ras = molecular target: T1, Ras (Homo sapiens, UniProt P01112, G12V); assay: Proliferation assay (MTS) dose-response, Ras test cell line ("FHR V12"); format: cell-based; conditions: Ras test cell line "FHR V12" (Fig. 7)
T1 construct: expressed in transfected cells
T1 sequence (P01112 1-186 G12V): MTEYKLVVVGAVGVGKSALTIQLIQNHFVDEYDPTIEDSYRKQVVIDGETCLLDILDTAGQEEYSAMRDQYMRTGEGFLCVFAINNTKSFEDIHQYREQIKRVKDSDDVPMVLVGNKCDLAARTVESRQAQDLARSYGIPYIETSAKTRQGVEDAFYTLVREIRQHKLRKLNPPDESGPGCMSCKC
Experimental: as §1

HER-2 = molecular target: T2, HER-2 (Homo sapiens, UniProt P04626, V659E); assay: Proliferation assay (MTS) dose-response, HER-2 test cell line; format: cell-based; conditions: HER-2 test cell line (Fig. 7)
T2 construct: enthält nun die komplette kodierende Region der mutierten, konstitutiv aktiven Form HER2(V659E); expressed in transfected cells
T2 sequence (P04626 23-1255 V659E): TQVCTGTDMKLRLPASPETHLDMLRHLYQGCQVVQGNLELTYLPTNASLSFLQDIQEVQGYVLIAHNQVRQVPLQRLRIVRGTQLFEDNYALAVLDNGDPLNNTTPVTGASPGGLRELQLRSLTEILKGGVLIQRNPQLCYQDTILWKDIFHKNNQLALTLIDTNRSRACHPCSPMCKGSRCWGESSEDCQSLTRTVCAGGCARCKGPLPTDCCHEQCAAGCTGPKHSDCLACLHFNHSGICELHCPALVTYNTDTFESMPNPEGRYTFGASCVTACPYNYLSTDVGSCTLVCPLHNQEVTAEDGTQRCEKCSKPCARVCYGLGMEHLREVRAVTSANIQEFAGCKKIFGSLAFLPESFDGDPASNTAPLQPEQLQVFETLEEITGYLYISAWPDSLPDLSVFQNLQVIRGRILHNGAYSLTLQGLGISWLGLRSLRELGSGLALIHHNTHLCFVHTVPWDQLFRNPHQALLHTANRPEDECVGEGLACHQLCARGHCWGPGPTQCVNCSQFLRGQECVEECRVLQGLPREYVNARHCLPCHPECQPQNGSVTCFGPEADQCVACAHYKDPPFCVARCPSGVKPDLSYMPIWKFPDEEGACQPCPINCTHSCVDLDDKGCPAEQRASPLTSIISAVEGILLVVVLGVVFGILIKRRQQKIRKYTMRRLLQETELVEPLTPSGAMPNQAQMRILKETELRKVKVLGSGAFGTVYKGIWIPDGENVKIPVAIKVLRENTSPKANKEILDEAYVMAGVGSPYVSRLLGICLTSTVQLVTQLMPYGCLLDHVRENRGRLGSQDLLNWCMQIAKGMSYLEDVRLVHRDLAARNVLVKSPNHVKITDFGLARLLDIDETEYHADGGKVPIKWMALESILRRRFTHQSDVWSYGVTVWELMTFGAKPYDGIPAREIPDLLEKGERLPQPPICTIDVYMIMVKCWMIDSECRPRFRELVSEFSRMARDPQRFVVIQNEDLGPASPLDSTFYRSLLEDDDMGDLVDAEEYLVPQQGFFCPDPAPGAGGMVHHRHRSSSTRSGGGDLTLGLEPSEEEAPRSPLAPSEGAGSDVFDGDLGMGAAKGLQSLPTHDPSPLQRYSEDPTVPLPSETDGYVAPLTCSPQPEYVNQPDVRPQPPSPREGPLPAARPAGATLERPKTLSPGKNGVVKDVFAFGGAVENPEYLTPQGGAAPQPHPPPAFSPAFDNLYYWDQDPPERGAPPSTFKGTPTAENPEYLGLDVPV
Experimental: FDC-P1-Zellen (Dexter et al., 1980), die IL-3-abhängig wachsen, wurden mit Plasmid pAHygCMVHer2(V659E) folgendermaßen transfiziert: Etwa 1x10^7 Zellen wurden in IMDM-Medium (Bio-Whittaker) mit 10 µg Plasmid DNA gemischt und mit einem Elektroporator (Hoefer, Progenetor II) bei 980 µF, 280 V für 1000 ms elektroporiert. Die Zellen wurden in IMDM-Medium in Anwesenheit von 10% hitzeinaktiviertem fötalem Kälberserum, 50 µM β-Mercaptoethanol, Standardantibiotika, und 1% IL-3 bei 37°C unter 5% CO2 gehalten und durch Zugabe von 300 mg/l Hygromycin B (Boehringer Mannheim) selektioniert. Nach erfolgreicher Selektion wurden die Zellen langsam von IL-3 entwöhnt, der IL-3-unabhängig wachsende Zellpool anschließend in Methocel subkloniert. Einzelne Klone wurden gepickt und in Medium ohne IL-3 hochgezogen.
Einzelne Klone wurden in einem Fluoreszenz-aktivierten Zell-Sorter (Becton-Dickinson, FACSort) auf Oberflächenexpression von HER2 getestet, dabei wurde als primärer Antikörper ein gegen die extrazelluläre Domäne von HER2 gerichteter Maus-Antikörper verwendet (Oncogene Science, c-neu (Ab-2)), und als sekundärer Antikörper ein Fluorescein Isothiocyanat (FITC)-konjugierter anti-Maus IgG Antikörper (Dianova, Hamburg). Der Subklon mit der besten Oberflächenexpression von HER2(V659E), genannt FDCP/Her2-C42#16, wurde für das Screenen verwendet. […]

HGF-R = assay: Proliferation assay (MTS) dose-response, HGF-R test cell line ("TPRmet"); format: cell-based, human; conditions: HGF-R test cell line "TPRmet" (Fig. 7)

EGF-Rezeptor, sequence (P00533 25-1210): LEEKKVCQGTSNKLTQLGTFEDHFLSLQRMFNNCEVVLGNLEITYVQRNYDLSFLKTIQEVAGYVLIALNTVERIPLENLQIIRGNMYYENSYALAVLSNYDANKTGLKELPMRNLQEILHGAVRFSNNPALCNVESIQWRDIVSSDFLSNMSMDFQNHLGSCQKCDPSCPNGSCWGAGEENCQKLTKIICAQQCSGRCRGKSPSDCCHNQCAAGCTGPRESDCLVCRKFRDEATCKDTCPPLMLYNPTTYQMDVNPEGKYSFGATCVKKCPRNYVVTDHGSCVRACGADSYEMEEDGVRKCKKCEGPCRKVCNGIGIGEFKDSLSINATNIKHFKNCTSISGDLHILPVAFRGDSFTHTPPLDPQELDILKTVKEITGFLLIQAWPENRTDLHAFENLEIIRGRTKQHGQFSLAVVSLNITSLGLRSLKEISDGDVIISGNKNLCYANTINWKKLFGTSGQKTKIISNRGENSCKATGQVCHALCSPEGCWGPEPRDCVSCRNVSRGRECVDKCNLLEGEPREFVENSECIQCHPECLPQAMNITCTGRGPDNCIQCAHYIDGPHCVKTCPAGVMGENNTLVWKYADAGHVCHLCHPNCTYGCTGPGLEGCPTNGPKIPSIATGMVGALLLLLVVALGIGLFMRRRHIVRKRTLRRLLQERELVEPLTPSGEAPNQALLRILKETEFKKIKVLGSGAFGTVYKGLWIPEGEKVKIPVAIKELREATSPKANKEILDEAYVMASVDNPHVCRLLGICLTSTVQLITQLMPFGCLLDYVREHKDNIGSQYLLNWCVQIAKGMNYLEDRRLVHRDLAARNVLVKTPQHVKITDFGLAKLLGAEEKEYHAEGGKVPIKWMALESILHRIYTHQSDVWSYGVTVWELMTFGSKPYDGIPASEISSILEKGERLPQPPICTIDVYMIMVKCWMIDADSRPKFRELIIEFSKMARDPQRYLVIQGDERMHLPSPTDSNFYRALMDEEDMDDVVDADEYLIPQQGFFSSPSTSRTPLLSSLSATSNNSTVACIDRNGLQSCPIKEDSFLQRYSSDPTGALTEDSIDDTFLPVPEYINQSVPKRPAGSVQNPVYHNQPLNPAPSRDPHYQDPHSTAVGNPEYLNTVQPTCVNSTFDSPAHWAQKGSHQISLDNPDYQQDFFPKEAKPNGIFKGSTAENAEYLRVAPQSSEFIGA

Inhibierung der Luciferase-Induktion durch EGF (EGF-Rezeptor): inhibitorische Wirkung
Compound: COc1cc2ncnc(Nc3cccc(C)c3)c2cc1OC [6,7-Dimethoxy-4-(3-methylphenylamino)chinazolin]

Compound: CC[C@H](C)[C@@H](CO[C@@H](Cc1ccccc1)C(=O)N[C@@H](CCS(C)(=O)=O)C(=O)OC)NC[C@@H](N)CS [L-739.749, 2(S)-{2(S)-[2(R)-Amino-3-mercapto]propylamino-3(S)-methyl}pentyloxy-3-phenylpropionylmethioninsulfonmethyl ester]
Ras-Protein in der unmodifizierten (nicht farnesylierten) Form (H-ras^Val12 [1]): > 50% | Hemmung der H-ras^Val12 abhängigen Proliferation (Viabilität) (H-ras^Val12 [2]): Hemmung der H-ras^Val12 abhängigen Proliferation (Viabilität) | Hemmung der H-ras^Val12 abhängigen Proliferation (DNA-Synthese) (H-ras^Val12 [3]): Hemmung der H-ras^Val12 abhängigen Proliferation (DNA-Synthese)

Konzentration, bei der Effekte auf die Proliferation der Zellen zu messen sind, relative to IC50 on the EGF-dependent cell line (Ras): ≥ 100 fach | Konzentration, bei der Effekte auf die Proliferation der Zellen zu messen sind, relative to IC50 on the EGF-dependent cell line (HER-2): ≥ 100 fach
Compound: Clc1cccc(Nc2ncnc3cnc(NC4CC4)nc23)c1 [4-[(3-Chlorphenyl)amino]-6-(cyclopropylamino)-pyrimido-[5,4-d]pyrimidin]
Konzentration, bei der Effekte auf die Proliferation der Zellen zu messen sind, relative to IC50 on the EGF-dependent cell line (HGF-R): ≥ 100 fach
